Data taken from patent US5919797A, “Halogenated naphthyl methoxy piperidines for mapping serotonin transporter sites” (Emory University, priority 1997, dated 1999).
Entries after “also recorded” stand apart in the source; their conditions may differ. Structures can show the parent of a compound that is named as a salt. Where two headings read alike, the source gives them in different places.

Key:
[1] = system: serotonin transporter sites; settings: carbon-11 labelled, vs previously tested PET serotonin transporter ligands; cited from earlier work
serotonin transporter [2] = target: T1, serotonin transporter (Rattus norvegicus, UniProt P31652); assay: inhibition of [3H]-citalopram binding to rat cortical homogenates (competitive radioligand binding assay)
T1 construct: from tissue; host or cells: rat cerebral cortex homogenate
Source text: Compounds of the invention have activity as specific ligands of the serotonin transporter. In particular, the 1-halonaphthalenyl pharmacophore has high affinity for the serotonin transporter. […] Halogen substituents can be in naturally-occurring or radioisotopic form.
Many compounds have been described in the literature as selective inhibitors of the presynaptic reuptake of serotonin (5-hydroxytryptamine,5-HT). […] A good correlation exists between the capacities of a variety of drugs to inhibit [^3 -H]-citalopram binding and [^3 -H]-5HT uptake in rat cortex, thus allowing this binding test to be used in screening for new 5-HT uptake inhibitors. […]

serotonergic neurons = assay: biodistribution studies in rats of radiolabelled compound; format: in vivo, rat; settings: 123-I labelled
5HT3 receptor = assay: inhibition of [3H] GR65630 binding to serotonergic synaptosomal preparation
Source text: 5HT3 receptor activity. It blocked the binding of [3H] GR65630 to […]

[3] = system: presynaptic reuptake of serotonin; settings: humans; depression, obsessive-compulsive and eating disorders, alcoholism, drug addiction; cited from earlier work
serotonin transporter [4] = settings: radiolabeled with carbon-11 and fluorine-18; cited from earlier work
[5] = Table 1, rat cortical tissue, read-out: [3H]-Citalopram Binding IC50
[6] = Table 1, rat cortical tissue, read-out: [3H]-Citalopram Binding Ki
[7] = concentration needed to achieve 50% inhibition of citalopram binding (IC50), rat cortical homogenates
[8] = serotonergic synaptosomal preparation

T1 sequence (P31652 whole entry): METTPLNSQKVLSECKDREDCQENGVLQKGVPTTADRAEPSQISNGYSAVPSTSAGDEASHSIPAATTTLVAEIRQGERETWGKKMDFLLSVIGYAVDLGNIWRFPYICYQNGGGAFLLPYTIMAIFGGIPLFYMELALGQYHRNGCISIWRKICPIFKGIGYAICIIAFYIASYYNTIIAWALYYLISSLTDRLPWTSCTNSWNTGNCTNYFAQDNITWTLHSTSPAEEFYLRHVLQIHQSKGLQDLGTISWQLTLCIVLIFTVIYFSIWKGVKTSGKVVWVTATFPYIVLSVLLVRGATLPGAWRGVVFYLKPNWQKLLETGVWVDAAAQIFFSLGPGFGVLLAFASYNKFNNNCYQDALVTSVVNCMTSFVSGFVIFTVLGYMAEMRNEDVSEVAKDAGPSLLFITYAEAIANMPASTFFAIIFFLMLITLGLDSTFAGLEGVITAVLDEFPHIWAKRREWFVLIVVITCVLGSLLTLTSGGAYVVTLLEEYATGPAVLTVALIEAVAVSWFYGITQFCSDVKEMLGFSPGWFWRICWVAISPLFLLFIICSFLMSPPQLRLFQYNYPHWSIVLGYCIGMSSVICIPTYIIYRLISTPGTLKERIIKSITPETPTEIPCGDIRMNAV

Structure (SMILES) | IC50 (serotonin transporter [2]; [5]) [nM] | Ki (serotonin transporter [2]; [6]) [nM] | IC50 (serotonin transporter [2]; [7]) [nM] | inhibition of [3H]-citalopram binding / affinity for the serotonin transporter, in words (serotonin transporter [2]; rat cortical tissue) | also measured
[11CH3]Sc1ccc([C@H]2CN3CCC[C@H]3c3ccccc32)cc1 [Carbon-11 McN-5652Z] |  |  |  |  | accumulation in brain regions rich in serotonergic neurons, in words [1]: greatest accumulation in brain regions rich in serotonergic neurons
Brc1c(COC2CCNCC2)ccc2ccccc12.Cl [Compound 1, 4-[(1-Bromo-2-naphthalenyl)methoxy]piperidine hydrochloride] | 0.02 | 0.014 | 0.015 | most potent inhibitor | potency relative to fluoxetine, inhibition of [3H]-citalopram binding (serotonin transporter [2]; rat cortical tissue, vs fluoxetine (Prozac)): 100 fold
Ic1c(COC2CCNCC2)ccc2ccccc12 [Compound 2, 4[(1-Iodo-2-naphthalenyl)methoxyl]piperidine hydrochloride] |  |  | 4.1 |  | Ki (serotonin transporter [2]): 4.13 nM; IC50 (serotonin transporter [2]; [3H]-Citalopram Binding IC50, Table 1, rat cortical tissue): 5.9 nM
Cl.Fc1c(COC2CCNCC2)ccc2ccccc12 [Compound 3, 4-[(1-Fluoro-2-naphthalenyl)methoxy]-piperidine hydrochloride] | 5.74 | 3.37 | 3.37 | inhibitory activity comparable to that of fluoxetine and fluvoxamine | 
Cl.Clc1c(COC2CCNCC2)ccc2ccccc12 [Compound 4, 4-[(1-Chloro-2-naphthalenyl)methoxy]-piperidine hydrochloride] | 2.12 | 1.24 | 1.24 | inhibitory activity comparable to that of fluoxetine and fluvoxamine | 
Brc1c(COC2CCNCC2)c(I)cc2ccccc12 [Compound 5, 4-[(1-Bromo-3-iodo-2-naphthalenyl)methoxy]piperidine hydrochloride] | 54.6 | 36.9 |  |  | 
Brc1c(COC2CCNCC2)cc(I)c2ccccc12 [Compound 6, 4-[(1-bromo-4-iodo-2-naphthalenyl)methoxy]piperidine hydrochloride] | 24.6 | 16.7 |  |  | 
Brc1c(COC2CCNCC2)ccc2cc(I)ccc12 [Compound 7, 4-[(1-Bromo-6-iodo-2-naphthalenyl)methoxy]piperidine hydrochloride] | 60 | 58.4 |  |  | 
[123I]c1c(COC2CCNCC2)ccc2ccccc12 [Compound 58] |  |  |  |  | selective accumulation of radioactivity in serotonergic neurons (serotonergic neurons): did not lead to selective accumulation of the radioactivity in serotonergic neurons
c1ccc2nc(COC3CCNCC3)ccc2c1 [Compound 70, 4-[(2-quinolenyl)methoxy]piperdine hydrochloride] | > 100 | > 100 |  | devoid of affinity for the serotonin transporter | 5-HT3 antagonism, in words (5HT3 receptor; hydrochloride): high selectivity as an antagonist of 5-HT3 function; also recorded: potent inhibitor; IC50 (5HT3 receptor; [8]): 7.4 nM; Ki (5HT3 receptor; [8]): 3.24 nM
COCCCC/C(=N\OCCN)c1ccc(C(F)(F)F)cc1 [fluvoxamine] |  |  |  |  | therapeutic value, in words [3]: considerable therapeutic value
O=[N+]([O-])c1ccc2nc(N3CCNCC3)ccc2c1 [nitroquipazine] |  |  |  |  | image quality / in vivo affinity and selectivity, in words (serotonin transporter [4]): poor quality images
